In ChEMBL document CHEMBL5729175, “Pharmaceutical composition for preventing or treating acute myeloid leukemia or metastatic breast cancer” (2022):

Target: T1, Receptor-type tyrosine-protein kinase FLT3 (Homo sapiens, UniProt P36888)
T1 sequence (P36888 whole entry): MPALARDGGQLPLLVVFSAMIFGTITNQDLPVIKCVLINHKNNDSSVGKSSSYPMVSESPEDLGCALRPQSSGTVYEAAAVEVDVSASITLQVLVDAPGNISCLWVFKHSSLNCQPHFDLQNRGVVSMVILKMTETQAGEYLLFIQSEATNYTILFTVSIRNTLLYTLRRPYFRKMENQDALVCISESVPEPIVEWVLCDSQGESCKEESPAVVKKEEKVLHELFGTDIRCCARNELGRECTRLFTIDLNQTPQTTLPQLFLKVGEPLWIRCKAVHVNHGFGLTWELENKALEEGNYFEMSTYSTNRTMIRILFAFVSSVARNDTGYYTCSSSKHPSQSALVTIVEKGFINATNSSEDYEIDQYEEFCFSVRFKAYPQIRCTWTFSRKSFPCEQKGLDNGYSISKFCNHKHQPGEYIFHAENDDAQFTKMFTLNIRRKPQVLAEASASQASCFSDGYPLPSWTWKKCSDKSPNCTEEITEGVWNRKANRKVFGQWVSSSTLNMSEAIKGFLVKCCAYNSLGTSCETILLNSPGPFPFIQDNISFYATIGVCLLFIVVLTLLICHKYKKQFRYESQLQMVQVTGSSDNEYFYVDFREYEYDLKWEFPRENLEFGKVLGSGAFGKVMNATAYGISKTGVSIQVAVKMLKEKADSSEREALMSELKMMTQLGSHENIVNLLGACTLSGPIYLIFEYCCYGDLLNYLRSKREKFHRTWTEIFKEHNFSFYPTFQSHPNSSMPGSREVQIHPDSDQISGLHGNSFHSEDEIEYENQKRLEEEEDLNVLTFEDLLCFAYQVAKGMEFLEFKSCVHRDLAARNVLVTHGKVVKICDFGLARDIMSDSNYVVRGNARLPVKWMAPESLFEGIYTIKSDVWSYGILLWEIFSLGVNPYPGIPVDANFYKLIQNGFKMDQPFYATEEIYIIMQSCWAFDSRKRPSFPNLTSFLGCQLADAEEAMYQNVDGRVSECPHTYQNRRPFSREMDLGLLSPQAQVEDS
Assay: In Vitro Kinase Assay: The inhibition of the FLT3 kinase activity was measured with homogeneous, time-resolved fluorescence (HTRF) assays. Recombinant proteins containing the FLT3 kinase domain were purchased from Invitrogen (Carlsbad, Calif., USA). Optimal enzyme, ATP, and substrate concentrations were established with the HTRF KinEASE kit (Cisbio, France) according to the manufacturer's instructions. The FLT3 enzymes were mixed with serially diluted compounds and peptide substrates in a kinase reaction buffer (50 mM HEPES (pH 7.0), 500 μM ATP, 0.1 mM sodium orthovanadate, 5 mM MgCl2, 1 mM DTT, 0.01% bovine serum albumin (BSA), and 0.02% NaN3). Ten microliters of the total volume of the kinase reaction were added to the wells of a 96-well assay plate. The kinase reactions were incubated for 30 min at 25° C. For the detection of the phospho-substrate, the Eu3b-Cryptate-conjugated mouse monoclonal antibody (PT66) and the streptavidin-XL665 (SA-XL) were added, and the reactions were then incubated for 1 hour at 25° C. The signal was measured on an Victor X5 multi-label reader (PerkinElmer, Waltham, Mass., USA).

Compound | IC50 [nM]
CN1CCN(CCO/N=C2/C(=C3/C(=O)Nc4ccc(Cl)cc43)Nc3ccccc32)CC1 | 2.4
O=C1Nc2ccc(F)cc2/C1=C1/Nc2ccccc2/C1=N\OCCN1CCNCC1 | 0.9
O=C1Nc2ccc(I)cc2/C1=C1/Nc2ccccc2/C1=N\OCCN1CCNCC1 | 1.8
CN1CCN(CCO/N=C2/C(=C3/C(=O)Nc4ccccc43)Nc3ccccc32)CC1 | 7.42
O=C1Nc2ccc(Br)cc2/C1=C1/Nc2ccccc2/C1=N\OCCN1CCNCC1 | 1
O=C1Nc2ccc(Cl)cc2/C1=C1/Nc2ccccc2/C1=N\OCCN1CCNCC1 | 1.3
NC1CCN(CCO/N=C2/C(=C3/C(=O)Nc4ccc(F)cc43)Nc3ccc(F)cc32)CC1 | 81.5
O=C1Nc2ccccc2/C1=C1/Nc2ccccc2/C1=N\OCCN1CCCCC1 | 251
CN1CCN(CCO/N=C2/C(=C3/C(=O)Nc4ccc([N+](=O)[O-])cc43)Nc3ccc(F)cc32)CC1 | 35.5
O=C1Nc2ccc([N+](=O)[O-])cc2/C1=C1/Nc2ccc(F)cc2/C1=N\OCCN1CCNCC1 | 35.5
CN1CCN(CCO/N=C2/C(=C3/C(=O)Nc4ccc(F)cc43)Nc3ccccc32)CC1 | 3.2
O=C1Nc2ccc([N+](=O)[O-])cc2/C1=C1/Nc2ccc(F)cc2/C1=N\OCCN1CCCCC1 | 453
O=C1Nc2ccccc2/C1=C1/Nc2ccccc2/C1=N\OCCN1CCCC1 | 51.9
COC(=O)c1ccc2c(c1)/C(=C1/Nc3ccccc3/C1=N\OCCN1CCOCC1)C(=O)N2 | 253
CN1CCN(CCO/N=C2/C(=C3/C(=O)Nc4ccc(I)cc43)Nc3ccccc32)CC1 | 5.8
O=C1Nc2ccc([N+](=O)[O-])cc2/C1=C1/Nc2ccc(F)cc2/C1=N\OCCN1CCCC1 | 112
O=C1Nc2ccc(F)cc2/C1=C1/Nc2ccc(F)cc2/C1=N\OCCN1CCNCC1 | 26.2
CN1CCN(CCO/N=C2/C(=C3/C(=O)Nc4ccc(F)cc43)Nc3ccc(F)cc32)CC1 | 40.4
